Assays:
[1] = system: dengue virus type 2; experiment: Functional assay to measure dose dependent changes in antiviral-drug inhibitory efficacy against Dengue virus type 2 New Guinea C in Vero E6 miRFP670 cells (cotreated with P-gp inhibitor, CP100356). Cells are treated with antiviral candidates that are serially diluted, following infection, cells are fixed. EC50 is reported via analysis of fluorescence intensity using high-content imager. The …; assay type: organism-based, Chlorocebus sabaeus, Vero C1008; details: Dengue virus
[2] = system: Zika virus; experiment: Functional CPE-based assay to measure dose dependent changes in antiviral-drug inhibitory efficacy against Zika virus MR766 in Vero E6 miRFP670 cells. Cells are treated with antiviral candidates that are serially diluted. EC50 is reported via analysis of MTS assay as a readout of CPE. The assay has been performed by KU Leuven.; assay type: organism-based, Chlorocebus sabaeus, Vero C1008; details: Zika virus

SMILES: CCCNC(=O)[C@H](Nc1cccc(-c2nn[nH]n2)c1)c1cc(Cl)cc(NC(=O)OCc2ccccc2)c1
- EC50 ([1]; Vero C1008): > 50 µM
- EC90 ([1]; Vero C1008, Baseline response 0 %, Hill slope 1.238, Maximum measured 113.655 %, Maximum response 100 %, Minimum measured 85.317 %, P-gp concentration 500 nM, R squared 0.426, P-gp inhibitor CP100356): > 50 µM
- EC50 ([2]; Vero C1008): > 50 µM
- EC90 ([2]; Vero C1008, Baseline response 0 %, Hill slope 3.408, Maximum measured 22.38 %, Maximum response 100 %, Minimum measured 1.712 %, R squared 0.919): > 50 µM

SMILES: CNC(=O)[C@H](Nc1cc(CN)cc(C(=O)O)c1)c1cc(Cl)cc(NC(=O)OCc2ccccc2)c1
- EC50 ([1]; Vero C1008): > 50 µM
- EC90 ([1]; Vero C1008, Maximum measured 124.943 %, Minimum measured 103.159 %, P-gp concentration 500 nM, P-gp inhibitor CP100356): > 50 µM
- EC50 ([2]; Vero C1008): > 50 µM
- EC90 ([2]; Vero C1008, Baseline response 0 %, Hill slope -2.362, Maximum measured 1.225 %, Maximum response 100 %, Minimum measured -2.193 %, R squared 0.027): > 50 µM

SMILES: NCc1cccc(NC(=O)c2cc(Cl)cc(C(N)=O)c2)c1
- EC50 ([1]; Vero C1008): > 50 µM
- EC90 ([1]; Vero C1008, Maximum measured 162.876 %, Minimum measured 96.337 %, P-gp concentration 500 nM, P-gp inhibitor CP100356): > 50 µM
- EC50 ([2]; Vero C1008): < 0.391 µM
- EC90 ([2]; Vero C1008, Baseline response 0 %, Hill slope -0.109, Maximum measured 5.527 %, Maximum response 100 %, Minimum measured 1.124 %, R squared 0.046): < 0.391 µM

SMILES: CC(C)Oc1ccc(S(=O)(=O)Nc2ccc(Cl)cc2C(=O)O)cc1
- EC50 ([1]; Vero C1008): 11.1 µM
- EC90 ([1]; Vero C1008, Baseline response 0 %, Hill slope -49.91, Maximum measured 106.831 %, Maximum response 100 %, Minimum measured 0.108 %, P-gp concentration 500 nM, R squared 0.989, P-gp inhibitor CP100356): 11.6 µM
- EC50 ([2]; Vero C1008): > 50 µM
- EC90 ([2]; Vero C1008, Baseline response 0 %, Hill slope 0.349, Maximum measured 6.596 %, Maximum response 100 %, Minimum measured -0.897 %, R squared 0.277): > 50 µM

SMILES: NCc1cc(NC(=O)c2cc(Cl)cc(NC(=O)OCc3ccccc3)c2)cc([C@@H]2C[C@H]2C(=O)O)c1
- EC50 ([1]; Vero C1008): > 12.5 µM
- EC90 ([1]; Vero C1008, Maximum measured 109.098 %, Minimum measured 97.886 %, P-gp concentration 500 nM, P-gp inhibitor CP100356): > 12.5 µM
- EC50 ([2]; Vero C1008): > 50 µM
- EC90 ([2]; Vero C1008, Maximum measured -4.084 %, Minimum measured -7.869 %): > 50 µM

SMILES: O=C(Nc1cc(Cl)cc(-c2ccc3[nH]nc(C(=O)O)c3c2)c1)OCc1ccccc1
- EC50 ([1]; Vero C1008): > 50 µM
- EC90 ([1]; Vero C1008, Maximum measured 168.4 %, Minimum measured 111.066 %, P-gp concentration 500 nM, P-gp inhibitor CP100356): > 50 µM
- EC50 ([2]; Vero C1008): > 50 µM
- EC90 ([2]; Vero C1008, Baseline response 0 %, Hill slope 0.266, Maximum measured 1.773 %, Maximum response 100 %, Minimum measured -0.573 %, R squared 0.018): > 50 µM

SMILES: O=C(NCC1CC1)c1cc(Cl)ccc1NS(=O)(=O)c1ccc(Oc2ccccc2Cl)cc1
- EC50 ([1]; Vero C1008): 6.05 µM
- EC90 ([1]; Vero C1008, Baseline response 0 %, Hill slope -26.927, Maximum measured 110.675 %, Maximum response 100 %, Minimum measured 0.394 %, P-gp concentration 500 nM, R squared 0.827, P-gp inhibitor CP100356): 6.57 µM
- EC50 ([2]; Vero C1008): > 50 µM
- EC90 ([2]; Vero C1008, Maximum measured -0.067 %, Minimum measured -1.21 %): > 50 µM

SMILES: OCC#C[C@H](Nc1ccc2c(c1)CNC2)c1cc(Cl)cc2[nH]ncc12
- EC50 ([1]; Vero C1008): > 50 µM
- EC90 ([1]; Vero C1008, Baseline response 0 %, Hill slope -0.86, Maximum measured 99.542 %, Maximum response 100 %, Minimum measured 57.079 %, P-gp concentration 500 nM, R squared 0.671, P-gp inhibitor CP100356): > 50 µM
- EC50 ([2]; Vero C1008): > 50 µM
- EC90 ([2]; Vero C1008, Baseline response 0 %, Hill slope -0.322, Maximum measured 7.802 %, Maximum response 100 %, Minimum measured -1.073 %, R squared 0.225): > 50 µM
- EC90 ([2]; Vero C1008, Maximum measured -0.957 %, Minimum measured -6.863 %): > 50 µM

SMILES: O=C(O)c1cc(Cl)c(F)cc1S(=O)(=O)Nc1ccc(Oc2ccccc2Cl)cc1
- EC50 ([1]; Vero C1008): 25.1 µM
- EC90 ([1]; Vero C1008, Baseline response 0 %, Hill slope -22.82, Maximum measured 108.329 %, Maximum response 100 %, Minimum measured 0.118 %, P-gp concentration 500 nM, R squared 0.881, P-gp inhibitor CP100356): 27.7 µM
- EC50 ([2]; Vero C1008): 39.6 µM
- EC90 ([2]; Vero C1008, Baseline response 0 %, EC90 CI (lower) 44.524 uM, EC90 CI (upper) 54.445 uM, Hill slope 10.107, Maximum measured 91.318 %, Maximum response 100 %, Minimum measured 0.941 %, R squared 0.971): 49.2 µM

SMILES: NCc1cc(/C=C/C(=O)O)cc(NC(=O)c2cc(Cl)cc(NC(=O)OCc3ccccc3)c2)c1
- EC50 ([1]; Vero C1008): > 50 µM
- EC90 ([1]; Vero C1008, Maximum measured 167.512 %, Minimum measured 81.46 %, P-gp concentration 500 nM, P-gp inhibitor CP100356): > 50 µM
- EC50 ([2]; Vero C1008): > 50 µM
- EC90 ([2]; Vero C1008, Baseline response 0 %, Hill slope -0.386, Maximum measured 1.272 %, Maximum response 100 %, Minimum measured -0.891 %, R squared 0.02): > 50 µM

SMILES: O=C(Nc1cc(Cl)cc(C(=O)Nc2ccc3c(c2)CNCC3)c1)OCc1ccccc1
- EC50 ([1]; Vero C1008): 1.52 µM
- EC90 ([1]; Vero C1008): 1.8 µM
- EC50 ([2]; Vero C1008): < 0.391 µM
- EC90 ([2]; Vero C1008, Baseline response 0 %, Hill slope -0.286, Maximum measured 50.319 %, Maximum response 100 %, Minimum measured -3.545 %, R squared 0.037): < 0.391 µM

SMILES: C=CC[C@H](Nc1ccc(-c2nn[nH]n2)cc1)c1cc(Cl)cc(NC(=O)OCc2ccccc2)c1
- EC50 ([1]; Vero C1008): 1.84 µM
- EC90 ([1]; Vero C1008, Baseline response 0 %, EC90 CI (lower) 0.301 uM, EC90 CI (upper) 0.468 uM, Hill slope -1.382, Maximum measured 87.879 %, Maximum response 100 %, Minimum measured 3.84 %, P-gp concentration 500 nM, R squared 0.99, P-gp inhibitor CP100356): 9.02 µM
- EC50 ([2]; Vero C1008): 13.7 µM
- EC90 ([2]; Vero C1008, Baseline response 0 %, EC90 CI (lower) 0 uM, EC90 CI (upper) -3.27181e+18 uM, Hill slope 17.95, Maximum measured 103.91 %, Maximum response 100 %, Minimum measured 1.446 %, R squared 0.986): 15.5 µM

Reference: ChEMBL document CHEMBL5661943, “ASAP - In vitro antiviral effect” (2024)
